Values after ≈ are worked out from the molar mass of the structure shown. Like-named read-outs stand apart in the source and are kept apart here.
How the values were obtained:
Assay in all cases: MIC (Minimum Inhibitory Concentration)
Assay type in all cases: cell-based
Candida albicans = test system: Candida albicans
Source text: (§1) In addition they may be used for combatting plant diseases, in particular as fungicides. A list of MIC (Minimum Inhibitory Concentration) values for a number of microorganisms is listed herebelow. The figures in the column headings refer to the compounds prepared according to the experimental examples in comparison with the spectrum of 1-[2-(2,4-dichlorophenyl)-2-{(2,4-dichlorophenyl)-methoxy} -ethyl7-1H-imidazole (better known under the name of miconazole, c.f. Merck Index 9th Ed. page 6047) or natamycin (pimaricin, c.f. Merck Index 9th Ed. page 7233).

Pasteurella multocida = conditions: read-out: MIC values
Source text: as §1

[1] = test system: Streptococcus haemolyticus; conditions: read-out: MIC values
Source text: as §1

Trichophyton equinum = test system: Trichophyton equinum
Source text: as §1

[2] = test system: Trichophyton mentagrophytus
Source text: as §1

Trichophyton quickeaneum = conditions: read-out: MIC values
Source text: as §1

Trichophyton rubrum = test system: Trichophyton rubrum
Source text: as §1

[3] = test system: Trichophyton schoenleinii; conditions: read-out: MIC values
Source text: as §1

Trichophyton tonsurans = conditions: read-out: MIC values
Source text: as §1

Trichophyton verrucosum = test system: Trichophyton verrucosum
Source text: as §1

Trichophyton violoceum = conditions: read-out: MIC values
Source text: as §1

[4] = read-out: MIC values, Candida albicans A 7
[5] = read-out: MIC values, Candida albicans A 3140
[6] = read-out: MIC values, Candida albicans A 3141
[7] = read-out: MIC values, Candida albicans A 3142
[8] = read-out: MIC values, Candida albicans A 3143
[9] = read-out: MIC values, Candida albicans A 3144
[10] = read-out: MIC values, Candida albicans A 3145
[11] = read-out: MIC values, Candida albicans A 3165
[12] = read-out: MIC values, Candida albicans A 3166
[13] = read-out: MIC values, Candida albicans A 3167
[14] = read-out: MIC values, Candida albicans A 3168
[15] = read-out: MIC values, Candida albicans A 3169
[16] = read-out: MIC values, Candida albicans A 3171
[17] = read-out: MIC values, Candida albicans A 3184
[18] = read-out: MIC values, Candida albicans A 3190
[19] = read-out: MIC values, Candida albicans A 3191
[20] = read-out: MIC values, Candida albicans A 3192
[21] = read-out: MIC values, Candida albicans A 3194
[22] = read-out: MIC values, Candida albicans A 3196
[23] = read-out: MIC values, Trichophyton equinum 182-76
[24] = read-out: MIC values, Trichophyton equinum 441-51
[25] = read-out: MIC values, Trichophyton mentagrophytus 367-68
[26] = read-out: MIC values, Trichophyton mentagrophytus 421-67
[27] = read-out: MIC values, Trichophyton mentagrophytus A 3252
[28] = read-out: MIC values, Trichophyton mentagrophytus R 177
[29] = read-out: MIC values, Trichophyton mentagrophytus R 178
[30] = read-out: MIC values, Trichophyton rubrum 218-65
[31] = read-out: MIC values, Trichophyton rubrum 494-62
[32] = read-out: MIC values, Trichophyton rubrum A 810
[33] = read-out: MIC values, Trichophyton verrucosum 134-66
[34] = read-out: MIC values, Trichophyton verrucosum A 2922

SMILES: [C-]#[N+]C(=C1CCOCC1)S(=O)(=O)c1ccc(C)cc1 [Example 14a, a-(tetrahydropyran-4-ylidene)-a-(4-toluenesulphonyl)-methyl-isocyanide]
- MIC (Candida albicans; [4]): 12.5 µg/mL (≈ 45.1 µM)
- MIC (Candida albicans; [5]): 12.5 µg/mL (≈ 45.1 µM)
- MIC (Candida albicans; [6]): 12.5 µg/mL (≈ 45.1 µM)
- MIC (Candida albicans; [7]): 12.5 µg/mL (≈ 45.1 µM)
- MIC (Candida albicans; [8]): 12.5 µg/mL (≈ 45.1 µM)
- MIC (Candida albicans; [9]): 25 µg/mL (≈ 90.1 µM)
- MIC (Candida albicans; [10]): 12.5 µg/mL (≈ 45.1 µM)
- MIC (Candida albicans; [11]): 12.5 µg/mL (≈ 45.1 µM)
- MIC (Candida albicans; [12]): 6 µg/mL (≈ 21.6 µM)
- MIC (Candida albicans; [13]): 6 µg/mL (≈ 21.6 µM)
- MIC (Candida albicans; [14]): 6 µg/mL (≈ 21.6 µM)
- MIC (Candida albicans; [15]): 6 µg/mL (≈ 21.6 µM)
- MIC (Candida albicans; [16]): 6 µg/mL (≈ 21.6 µM)
- MIC (Candida albicans; [17]): 12.5 µg/mL (≈ 45.1 µM)
- MIC (Candida albicans; [18]): 12.5 µg/mL (≈ 45.1 µM)
- MIC (Candida albicans; [19]): 12.5 µg/mL (≈ 45.1 µM)
- MIC (Candida albicans; [20]): 12.5 µg/mL (≈ 45.1 µM)
- MIC (Candida albicans; [21]): 12.5 µg/mL (≈ 45.1 µM)
- MIC (Candida albicans; [22]): 12.5 µg/mL (≈ 45.1 µM)
- MIC (Pasteurella multocida; Pasteurella multocida): 6 µg/mL (≈ 21.6 µM)
- MIC ([1]; Streptococcus): 25 µg/mL (≈ 90.1 µM)
- MIC (Trichophyton equinum; [23]): 25 µg/mL (≈ 90.1 µM)
- MIC (Trichophyton equinum; [24]): 6 µg/mL (≈ 21.6 µM)
- MIC [2, 25]: 25 µg/mL (≈ 90.1 µM)
- MIC [2, 26]: 25 µg/mL (≈ 90.1 µM)
- MIC [2, 27]: 25 µg/mL (≈ 90.1 µM)
- MIC [2, 28]: 12.5 µg/mL (≈ 45.1 µM)
- MIC [2, 29]: 100 µg/mL (≈ 361 µM)
- MIC (Trichophyton quickeaneum; Trichophyton): 25 µg/mL (≈ 90.1 µM)
- MIC (Trichophyton rubrum; [30]): 3 µg/mL (≈ 10.8 µM)
- MIC (Trichophyton rubrum; [31]): 25 µg/mL (≈ 90.1 µM)
- MIC (Trichophyton rubrum; [32]): 12.5 µg/mL (≈ 45.1 µM)
- MIC ([3]; Trichophyton schoenleinii): 6 µg/mL (≈ 21.6 µM)
- MIC (Trichophyton tonsurans; Trichophyton tonsurans): 0.75 µg/mL (≈ 2.7 µM)
- MIC (Trichophyton verrucosum; [33]): 3 µg/mL (≈ 10.8 µM)
- MIC (Trichophyton verrucosum; [34]): 3 µg/mL (≈ 10.8 µM)
- MIC (Trichophyton violoceum; Trichophyton): 12.5 µg/mL (≈ 45.1 µM)

SMILES: [C-]#[N+]C(C1=CCOCC1)S(=O)(=O)c1ccc(C)cc1 (stereo not drawn) [Example 14b, α-(2,3-dihydro-6H-pyran-4-yl)-a-(4-toluenesulphonyl)-methylisocyanide]
- MIC (Candida albicans; Candida albicans A 7, read-out: MIC values): 6 µg/mL (≈ 21.6 µM)
- MIC (Candida albicans; Candida albicans A 3140, read-out: MIC values): 6 µg/mL (≈ 21.6 µM)
- MIC (Candida albicans; Candida albicans A 3141, read-out: MIC values): 12.5 µg/mL (≈ 45.1 µM)
- MIC (Candida albicans; Candida albicans A 3142, read-out: MIC values): 6 µg/mL (≈ 21.6 µM)
- MIC (Candida albicans; Candida albicans A 3143, read-out: MIC values): 6 µg/mL (≈ 21.6 µM)
- MIC (Candida albicans; Candida albicans A 3144, read-out: MIC values): 25 µg/mL (≈ 90.1 µM)
- MIC (Candida albicans; Candida albicans A 3145, read-out: MIC values): 12.5 µg/mL (≈ 45.1 µM)
- MIC (Candida albicans; Candida albicans A 3165, read-out: MIC values): 6 µg/mL (≈ 21.6 µM)
- MIC (Candida albicans; Candida albicans A 3166, read-out: MIC values): 6 µg/mL (≈ 21.6 µM)
- MIC (Candida albicans; Candida albicans A 3167, read-out: MIC values): 6 µg/mL (≈ 21.6 µM)
- MIC (Candida albicans; Candida albicans A 3168, read-out: MIC values): 6 µg/mL (≈ 21.6 µM)
- MIC (Candida albicans; Candida albicans A 3169, read-out: MIC values): 6 µg/mL (≈ 21.6 µM)
- MIC (Candida albicans; Candida albicans A 3171, read-out: MIC values): 6 µg/mL (≈ 21.6 µM)
- MIC (Candida albicans; Candida albicans A 3184, read-out: MIC values): 6 µg/mL (≈ 21.6 µM)
- MIC (Candida albicans; Candida albicans A 3190, read-out: MIC values): 12.5 µg/mL (≈ 45.1 µM)
- MIC (Candida albicans; Candida albicans A 3191, read-out: MIC values): 25 µg/mL (≈ 90.1 µM)
- MIC (Candida albicans; Candida albicans A 3192, read-out: MIC values): 6 µg/mL (≈ 21.6 µM)
- MIC (Candida albicans; Candida albicans A 3194, read-out: MIC values): 12.5 µg/mL (≈ 45.1 µM)
- MIC (Candida albicans; Candida albicans A 3196, read-out: MIC values): 25 µg/mL (≈ 90.1 µM)
- MIC (Pasteurella multocida; Pasteurella multocida A 723): 6 µg/mL (≈ 21.6 µM)
- MIC ([1]; Streptococcus haemolyticus A 1088): 100 µg/mL (≈ 361 µM)
- MIC (Trichophyton equinum; Trichophyton equinum 182-76, read-out: MIC values): 25 µg/mL (≈ 90.1 µM)
- MIC (Trichophyton equinum; Trichophyton equinum 441-51, read-out: MIC values): 3 µg/mL (≈ 10.8 µM)
- MIC ([2]; Trichophyton mentagrophytus 367-68, read-out: MIC values): 25 µg/mL (≈ 90.1 µM)
- MIC ([2]; Trichophyton mentagrophytus 421-67, read-out: MIC values): 25 µg/mL (≈ 90.1 µM)
- MIC ([2]; Trichophyton mentagrophytus A 3252, read-out: MIC values): 25 µg/mL (≈ 90.1 µM)
- MIC ([2]; Trichophyton mentagrophytus R 177, read-out: MIC values): 25 µg/mL (≈ 90.1 µM)
- MIC ([2]; Trichophyton mentagrophytus R 178, read-out: MIC values): 50 µg/mL (≈ 180 µM)
- MIC (Trichophyton quickeaneum; Trichophyton quickeaneum A 2040): 25 µg/mL (≈ 90.1 µM)
- MIC (Trichophyton rubrum; Trichophyton rubrum 218-65, read-out: MIC values): 3 µg/mL (≈ 10.8 µM)
- MIC (Trichophyton rubrum; Trichophyton rubrum 494-62, read-out: MIC values): 25 µg/mL (≈ 90.1 µM)
- MIC (Trichophyton rubrum; Trichophyton rubrum A 810, read-out: MIC values): 12.5 µg/mL (≈ 45.1 µM)
- MIC ([3]; Trichophyton schoenleinii 435-63): 6 µg/mL (≈ 21.6 µM)
- MIC (Trichophyton tonsurans; Trichophyton tonsurans 561-50): 0.4 µg/mL (≈ 1.44 µM)
- MIC (Trichophyton verrucosum; Trichophyton verrucosum 134-66, read-out: MIC values): 3 µg/mL (≈ 10.8 µM)
- MIC (Trichophyton verrucosum; Trichophyton verrucosum A 2922, read-out: MIC values): 1.5 µg/mL (≈ 5.41 µM)
- MIC (Trichophyton violoceum; Trichophyton violoceum 442-62): 12.5 µg/mL (≈ 45.1 µM)

SMILES: [C-]#[N+]C(=C1CCSCC1)S(=O)(=O)c1ccc(C)cc1 [Example 16a, a-(thian-4-ylidene)-a-(4-toluenesulphonyl)-methylisocyanide]
- MIC (Candida albicans; [4]): 6 µg/mL (≈ 20.4 µM)
- MIC (Candida albicans; [5]): 6 µg/mL (≈ 20.4 µM)
- MIC (Candida albicans; [6]): 6 µg/mL (≈ 20.4 µM)
- MIC (Candida albicans; [7]): 6 µg/mL (≈ 20.4 µM)
- MIC (Candida albicans; [8]): 12.5 µg/mL (≈ 42.6 µM)
- MIC (Candida albicans; [9]): 12.5 µg/mL (≈ 42.6 µM)
- MIC (Candida albicans; [10]): 12.5 µg/mL (≈ 42.6 µM)
- MIC (Candida albicans; [11]): 6 µg/mL (≈ 20.4 µM)
- MIC (Candida albicans; [12]): 3 µg/mL (≈ 10.2 µM)
- MIC (Candida albicans; [13]): 3 µg/mL (≈ 10.2 µM)
- MIC (Candida albicans; [14]): 3 µg/mL (≈ 10.2 µM)
- MIC (Candida albicans; [15]): 12.5 µg/mL (≈ 42.6 µM)
- MIC (Candida albicans; [16]): 6 µg/mL (≈ 20.4 µM)
- MIC (Candida albicans; [17]): 12.5 µg/mL (≈ 42.6 µM)
- MIC (Candida albicans; [18]): 25 µg/mL (≈ 85.2 µM)
- MIC (Candida albicans; [19]): 25 µg/mL (≈ 85.2 µM)
- MIC (Candida albicans; [20]): 25 µg/mL (≈ 85.2 µM)
- MIC (Candida albicans; [21]): 25 µg/mL (≈ 85.2 µM)
- MIC (Candida albicans; [22]): 25 µg/mL (≈ 85.2 µM)
- MIC (Pasteurella multocida; Pasteurella multocida): 6 µg/mL (≈ 20.4 µM)
- MIC ([1]; Streptococcus): 25 µg/mL (≈ 85.2 µM)
- MIC (Trichophyton equinum; [23]): 25 µg/mL (≈ 85.2 µM)
- MIC (Trichophyton equinum; [24]): 3 µg/mL (≈ 10.2 µM)
- MIC [2, 25]: 25 µg/mL (≈ 85.2 µM)
- MIC [2, 26]: 50 µg/mL (≈ 170 µM)
- MIC [2, 27]: 25 µg/mL (≈ 85.2 µM)
- MIC [2, 28]: 12.5 µg/mL (≈ 42.6 µM)
- MIC [2, 29]: 100 µg/mL (≈ 341 µM)
- MIC (Trichophyton quickeaneum; Trichophyton): 12.5 µg/mL (≈ 42.6 µM)
- MIC (Trichophyton rubrum; [30]): 6 µg/mL (≈ 20.4 µM)
- MIC (Trichophyton rubrum; [31]): 25 µg/mL (≈ 85.2 µM)
- MIC (Trichophyton rubrum; [32]): 3 µg/mL (≈ 10.2 µM)
- MIC ([3]; Trichophyton schoenleinii): 6 µg/mL (≈ 20.4 µM)
- MIC (Trichophyton tonsurans; Trichophyton tonsurans): 0.4 µg/mL (≈ 1.36 µM)
- MIC (Trichophyton verrucosum; [33]): 3 µg/mL (≈ 10.2 µM)
- MIC (Trichophyton verrucosum; [34]): 1.5 µg/mL (≈ 5.11 µM)
- MIC (Trichophyton violoceum; Trichophyton): 6 µg/mL (≈ 20.4 µM)
